Laboratory results reported in patent US20190015650A1, “MICRONEEDLE TATTOO PATCHES AND USE THEREOF” (Massachusetts Institute of Technology, priority 2017, published 2019).

Assays:
[1] = Chemical stability of dyes: hydrogen peroxide and pH; format: physicochemical
Description: Additional evaluations on the dyes to withstand oxidative stress were tested by submerging the dye in 3 mM or 3 micromolar hydrogen peroxide, and compared for signal before and after such treatment (FIG. 9B). 23 fluorophores were tested.
The pH stability of the dyes was evaluated by submerging in different pH ranging from 1 to 13 (FIG. 9C). 17 fluorophores were tested.

[2] = Photostability of dyes exposed to compact fluorescent (CFL) bulb; format: physicochemical
Description: Dyes were prepared in solution (1 mM) or suspension (1 mg/mL) and exposed to light from a compact fluorescent (CFL) bulb (FIG. 9A). 55 fluorophores were tested including organic, encapsulated organic, inorganic, inorganic nanoparticle, tattoo, and semiconducting polymer dots.

Compound	Performance: chemical stability [1]	Performance: photostability [2]
CCN1/C(=C/C=C/C=C/C2=[N+](CCCCCC(=O)O)c3ccc(S(=O)(=O)O)cc3C2(C)C)C(C)(C)c2cc(S(=O)(=O)[O-])ccc21 [CY5]	Poor chemical stability	Poor photostability
CCCN1/C(=C/C=C2\CCCC(/C=C/C3=[N+](CCC)c4ccccc4C3(C)C)=C2Cl)C(C)(C)c2ccccc21.[I-] [IR780]	Poor chemical stability	Poor photostability
Rhodamine	–	Poor photostability
O=C1OC2(c3ccc(O)cc3Oc3cc(O)ccc32)c2ccccc21 [Fluorescein]	–	Poor photostability
CCN1C(=CC=CC=CC=CC2=[N+](CCCCCC(=O)O)c3ccc(S(=O)(=O)O)cc3C2(C)C)C(C)(C)c2cc(S(=O)(=O)[O-])ccc21 [CY7]	Poor chemical stability	Poor photostability
